The values that follow come from US11555055B2, “Peptide inhibitors of insulin-degrading enzyme” (The Regents of the University of California, priority 2017, dated 2023).

Where a SMILES comes first, the peptide text is derived from it. Bridges are numbered along the chain shown (N, C = ends).

In assay [1] the target is T1, IDE (Homo sapiens, UniProt P14735).
T1 construct: made in house; host or cells: bacteria
T1 sequence (P14735 1-1019): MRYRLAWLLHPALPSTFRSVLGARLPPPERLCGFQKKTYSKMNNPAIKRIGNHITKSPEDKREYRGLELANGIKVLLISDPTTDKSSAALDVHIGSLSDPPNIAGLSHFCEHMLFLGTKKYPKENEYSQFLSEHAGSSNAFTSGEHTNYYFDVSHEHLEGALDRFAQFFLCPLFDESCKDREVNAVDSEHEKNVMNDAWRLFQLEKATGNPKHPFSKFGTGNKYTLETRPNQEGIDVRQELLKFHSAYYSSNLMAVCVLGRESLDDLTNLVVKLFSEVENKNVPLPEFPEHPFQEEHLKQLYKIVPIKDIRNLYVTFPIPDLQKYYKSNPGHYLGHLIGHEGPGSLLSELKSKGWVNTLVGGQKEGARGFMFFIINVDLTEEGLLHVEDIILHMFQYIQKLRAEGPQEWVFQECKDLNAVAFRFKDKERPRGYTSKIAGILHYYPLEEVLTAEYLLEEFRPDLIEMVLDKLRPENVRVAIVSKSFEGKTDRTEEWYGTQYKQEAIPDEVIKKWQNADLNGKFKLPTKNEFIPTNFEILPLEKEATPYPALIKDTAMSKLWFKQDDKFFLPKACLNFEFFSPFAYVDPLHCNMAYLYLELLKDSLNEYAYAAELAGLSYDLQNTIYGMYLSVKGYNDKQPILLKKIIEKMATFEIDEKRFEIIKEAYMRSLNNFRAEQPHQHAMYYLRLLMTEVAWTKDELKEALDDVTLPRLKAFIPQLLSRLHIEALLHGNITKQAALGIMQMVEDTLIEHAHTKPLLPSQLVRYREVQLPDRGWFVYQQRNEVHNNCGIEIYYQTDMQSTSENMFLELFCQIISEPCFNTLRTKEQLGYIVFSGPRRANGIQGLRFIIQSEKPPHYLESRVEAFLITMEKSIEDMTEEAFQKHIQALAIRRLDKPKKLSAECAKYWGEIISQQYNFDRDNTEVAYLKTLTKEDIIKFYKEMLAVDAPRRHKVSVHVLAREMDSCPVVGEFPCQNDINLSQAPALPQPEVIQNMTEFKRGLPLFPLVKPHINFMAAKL
In words: Vulnerability of peptides to degradation by IDE: potency after 0 or 4 h pre-incubation with IDE, FRET1 assay. The class given is biochemical. The conditions noted are these: 4-h incubation with IDE. From the text:
FIG. 2. Vulnerability of peptides to degradation by IDE assessed by activity assays.
Because IDE is a peptidase, it was critical to determine whether the peptides were degraded by IDE over time. […] Because this peptide is capable of forming a disulfide bond between its two cysteines, but was not deliberately cyclized prior to testing, we suspect that the peptide (and related variants) may have cyclized over time, contributing to its stability. […]
Degradation Assays—IDE activity was quantified by monitoring the degradation of (7-methoxycoumarin-4-yl)acetic acid-[…](2,4-dinitrophenyl) (FRET1, 5 μM) (49,55), fluoresceinated and biotinylated amyloid β-protein (FAβB; 500 nM) or recombinant human insulin (50 nM) in PBS supplemented with 0.05% BSA. FRET1 degradation was measured by changes in fluorescence (λex=340 nm, λem=420 nm); FAβB degradation was monitored by fluorescence polarization (λex=488 nm, λem=525 nm), as described (56); and insulin degradation was quantified by ELISA. […] For quantitation of insulin degradation in primary murine skin fibroblasts, cells (1×10^5/well) were plated in 96-well plates and maintained in DMEM supplemented with 10% fetal bovine serum (FBS), 2 mM glutamine, penicillin and streptomycin. […]

Assay [2] has as its target T1, IDE. Nature of the assay: IDE protease activity assay with FRET1 substrate. In kind it is biochemical. The note with it: Ki converted from IC50 with the Cheng-Prusoff equation.

As usually defined, the Ki is a dissociation constant, usually derived from enzyme kinetics or from competition with a known ligand. Low values mean tighter binding, high ones weaker binding. With `CC(C)C[C@H](NC(=O)[C@H](CO)NC(=O)[C@@H](N)CCC(N)=O)C(=O)N1CCC[C@H]1C(=O)N[C@@H](Cc1c[nH]c2ccccc12)C(=O)N[C@H]1CSSC[C@@H](C(=O)N[C@H](C(=O)N[C@H](C(N)=O)[C@@H](C)O)C(C)C)NC(=O)[C@H](Cc2c[nH]cn2)NC(=O)[C@@H]2CCCN2C(=O)[C@H](Cc2ccc(O)cc2)NC1=O` [Peptide P12-3A] (H-QSLPWCYPHCVT-NH2; disulfide 6-10 (inferred)), in assay [1], the “increase in potency at the 4-h time point relative to t=0” value is 1 fold. The inhibition constant (Ki) in assay [2] came to 10 ± 0.4 µM.
